Results as given in patent US20110281949A1, “METHODS AND COMPOSITIONS FOR TREATING NEURONAL DAMAGE AND MODULATING TRANSIENT RECEPTOR POTENTIAL CHANNELS” (priority 2008, published 2011).
Entries after “also recorded” stand apart in the source; their conditions may differ. Read-outs that look alike come from different tables or passages of the source.

Key:
TRPL channels = biological target: T1, TRPL channels (Drosophila melanogaster, UniProt P48994); experiment: Whole-cell patch clamp of TRPL channels expressed in S2 cells; conditions: for Effect on TRPL-mediated current / Effect on current when TRPL channels were not expressed (control): IX 500 μM, XVII 5 mM; for Effect on TRPL-mediated current: XIII 3 mM, XIV 1 mM, XII 2 mM, XV up to 5 mM, X 5 mM, XVI 5 mM, XI 10 mM; for TRPL Activation/Inhibition: TRPL expressed in S2 cells; for Effect on current when TRPL channels were not expressed (control): S2 cells without TRPL expression
T1 sequence (P48994 1-1124): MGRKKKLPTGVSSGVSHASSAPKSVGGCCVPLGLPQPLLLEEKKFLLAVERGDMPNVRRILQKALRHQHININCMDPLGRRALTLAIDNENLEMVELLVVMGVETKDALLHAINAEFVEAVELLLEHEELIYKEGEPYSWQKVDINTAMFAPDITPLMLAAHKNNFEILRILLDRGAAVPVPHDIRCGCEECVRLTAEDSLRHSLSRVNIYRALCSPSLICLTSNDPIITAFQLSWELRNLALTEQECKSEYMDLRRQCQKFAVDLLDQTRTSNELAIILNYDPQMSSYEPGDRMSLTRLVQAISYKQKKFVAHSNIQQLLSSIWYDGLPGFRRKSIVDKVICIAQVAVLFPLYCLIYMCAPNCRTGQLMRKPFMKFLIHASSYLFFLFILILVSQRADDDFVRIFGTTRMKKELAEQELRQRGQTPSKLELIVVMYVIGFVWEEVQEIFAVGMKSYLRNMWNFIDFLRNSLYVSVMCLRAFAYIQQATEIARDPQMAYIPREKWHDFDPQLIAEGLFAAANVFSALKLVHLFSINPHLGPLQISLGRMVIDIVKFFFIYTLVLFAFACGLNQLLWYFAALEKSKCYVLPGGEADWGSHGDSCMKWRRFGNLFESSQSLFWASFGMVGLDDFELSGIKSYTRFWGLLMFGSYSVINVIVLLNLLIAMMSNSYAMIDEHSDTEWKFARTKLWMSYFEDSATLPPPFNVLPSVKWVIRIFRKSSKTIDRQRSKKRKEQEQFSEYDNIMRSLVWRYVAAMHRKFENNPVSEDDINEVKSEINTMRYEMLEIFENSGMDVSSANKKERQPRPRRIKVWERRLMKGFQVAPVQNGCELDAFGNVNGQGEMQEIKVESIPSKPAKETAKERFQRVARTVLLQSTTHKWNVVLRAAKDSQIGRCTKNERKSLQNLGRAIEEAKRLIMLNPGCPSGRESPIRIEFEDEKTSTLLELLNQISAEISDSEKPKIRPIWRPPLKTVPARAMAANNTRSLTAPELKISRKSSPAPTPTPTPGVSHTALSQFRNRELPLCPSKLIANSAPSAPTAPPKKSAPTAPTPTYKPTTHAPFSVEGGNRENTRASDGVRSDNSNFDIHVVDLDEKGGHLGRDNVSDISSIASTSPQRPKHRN
Experimental: Schneider 2 cells were grown in 25 cm^2 flasks at 25° C. in Schneider medium (Beit HaEmek biological industries, Israel) supplemented with 10% fetal bovine serum (FBS) and 1% pen-strep reagent.
24 hours prior to the experiment, 500 μM CuSO4 was added to the medium of the S2 cells to induce expression of the channels. […] Currents were recorded at room temperature using borosilicate patch pipettes of 5-8 MΩ and an Axopatch 1D (Molecular Devices, Inc.) voltage-clamp amplifier. […] Currents were filtered using the 8-pole low pass Bessel filter of the patch-clamp amplifier at 5 kHz and sampled at 20 kHz. To measure I-V curves with minimal distortions, only cells with low (<10 MΩ) series resistance were used, and series resistance was compensated to ˜80%.
For S2 cells, the extracellular solution contained in mM: 150 NaCl, 5 KCl, 4 MgCl2, 10 TES, 25 proline, 5 alanine and 0.5 EGTA. The intracellular solution contained in mM: 130 K-gluconate, 10 TES, 2 MgCl2, 4 Mg-ATP and 0.4 Na-GTP. […] All solutions were titrated to pH 7.2. Cells were perfused via a BPS-8 valve control system (Scientific Instruments) at a rate of ˜30 chamber volumes per minute. Chemicals were applied via the perfusion system.

TRPV3 = conditions: literature; cited from earlier work
TRPA1 = TRPA1 (Homo sapiens, UniProt O75762); conditions: irreversible, by covalent modification; cited from earlier work
Sequence of TRPA1 (O75762 whole entry, species assumed): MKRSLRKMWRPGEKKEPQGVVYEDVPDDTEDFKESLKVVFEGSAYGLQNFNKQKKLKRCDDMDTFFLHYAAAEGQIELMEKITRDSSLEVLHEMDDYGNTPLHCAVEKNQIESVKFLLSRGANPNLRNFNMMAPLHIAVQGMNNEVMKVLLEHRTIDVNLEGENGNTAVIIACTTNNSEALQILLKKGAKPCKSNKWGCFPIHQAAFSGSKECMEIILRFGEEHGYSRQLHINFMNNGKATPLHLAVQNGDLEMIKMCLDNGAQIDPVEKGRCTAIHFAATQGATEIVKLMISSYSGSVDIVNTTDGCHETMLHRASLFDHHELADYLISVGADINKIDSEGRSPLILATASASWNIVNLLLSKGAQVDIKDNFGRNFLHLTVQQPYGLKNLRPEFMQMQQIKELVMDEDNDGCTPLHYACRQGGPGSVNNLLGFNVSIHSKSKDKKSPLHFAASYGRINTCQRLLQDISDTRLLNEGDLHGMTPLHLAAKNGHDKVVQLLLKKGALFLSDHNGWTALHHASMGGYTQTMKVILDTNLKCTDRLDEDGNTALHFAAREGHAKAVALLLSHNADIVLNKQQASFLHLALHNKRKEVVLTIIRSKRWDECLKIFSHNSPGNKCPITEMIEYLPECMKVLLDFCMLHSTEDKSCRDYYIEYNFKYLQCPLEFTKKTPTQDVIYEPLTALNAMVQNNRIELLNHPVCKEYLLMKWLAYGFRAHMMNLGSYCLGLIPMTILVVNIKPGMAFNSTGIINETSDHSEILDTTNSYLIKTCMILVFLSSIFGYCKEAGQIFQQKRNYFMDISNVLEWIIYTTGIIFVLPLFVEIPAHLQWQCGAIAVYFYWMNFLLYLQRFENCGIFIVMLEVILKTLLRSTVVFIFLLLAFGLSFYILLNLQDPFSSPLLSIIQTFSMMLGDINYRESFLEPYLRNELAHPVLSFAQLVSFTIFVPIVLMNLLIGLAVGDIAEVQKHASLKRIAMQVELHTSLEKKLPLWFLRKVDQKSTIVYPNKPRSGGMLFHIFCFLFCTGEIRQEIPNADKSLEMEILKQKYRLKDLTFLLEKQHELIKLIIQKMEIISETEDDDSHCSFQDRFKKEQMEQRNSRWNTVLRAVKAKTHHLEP

TRPM7 [1] = biological target: T2, TRPM7 (Mus musculus, UniProt Q923J1); experiment: Whole-cell patch clamp of TRPM7 expressed in HEK cells; format: cell-based, mammalian; design: expressed in transfected cells; host or cells: HEK / HEK293 cells, transient, TransIT reagent (Mirus); conditions: for Effect on TRPM7-mediated current: HEK cells expressing TRPM7, IX 500 μM
T2 sequence (Q923J1 whole entry): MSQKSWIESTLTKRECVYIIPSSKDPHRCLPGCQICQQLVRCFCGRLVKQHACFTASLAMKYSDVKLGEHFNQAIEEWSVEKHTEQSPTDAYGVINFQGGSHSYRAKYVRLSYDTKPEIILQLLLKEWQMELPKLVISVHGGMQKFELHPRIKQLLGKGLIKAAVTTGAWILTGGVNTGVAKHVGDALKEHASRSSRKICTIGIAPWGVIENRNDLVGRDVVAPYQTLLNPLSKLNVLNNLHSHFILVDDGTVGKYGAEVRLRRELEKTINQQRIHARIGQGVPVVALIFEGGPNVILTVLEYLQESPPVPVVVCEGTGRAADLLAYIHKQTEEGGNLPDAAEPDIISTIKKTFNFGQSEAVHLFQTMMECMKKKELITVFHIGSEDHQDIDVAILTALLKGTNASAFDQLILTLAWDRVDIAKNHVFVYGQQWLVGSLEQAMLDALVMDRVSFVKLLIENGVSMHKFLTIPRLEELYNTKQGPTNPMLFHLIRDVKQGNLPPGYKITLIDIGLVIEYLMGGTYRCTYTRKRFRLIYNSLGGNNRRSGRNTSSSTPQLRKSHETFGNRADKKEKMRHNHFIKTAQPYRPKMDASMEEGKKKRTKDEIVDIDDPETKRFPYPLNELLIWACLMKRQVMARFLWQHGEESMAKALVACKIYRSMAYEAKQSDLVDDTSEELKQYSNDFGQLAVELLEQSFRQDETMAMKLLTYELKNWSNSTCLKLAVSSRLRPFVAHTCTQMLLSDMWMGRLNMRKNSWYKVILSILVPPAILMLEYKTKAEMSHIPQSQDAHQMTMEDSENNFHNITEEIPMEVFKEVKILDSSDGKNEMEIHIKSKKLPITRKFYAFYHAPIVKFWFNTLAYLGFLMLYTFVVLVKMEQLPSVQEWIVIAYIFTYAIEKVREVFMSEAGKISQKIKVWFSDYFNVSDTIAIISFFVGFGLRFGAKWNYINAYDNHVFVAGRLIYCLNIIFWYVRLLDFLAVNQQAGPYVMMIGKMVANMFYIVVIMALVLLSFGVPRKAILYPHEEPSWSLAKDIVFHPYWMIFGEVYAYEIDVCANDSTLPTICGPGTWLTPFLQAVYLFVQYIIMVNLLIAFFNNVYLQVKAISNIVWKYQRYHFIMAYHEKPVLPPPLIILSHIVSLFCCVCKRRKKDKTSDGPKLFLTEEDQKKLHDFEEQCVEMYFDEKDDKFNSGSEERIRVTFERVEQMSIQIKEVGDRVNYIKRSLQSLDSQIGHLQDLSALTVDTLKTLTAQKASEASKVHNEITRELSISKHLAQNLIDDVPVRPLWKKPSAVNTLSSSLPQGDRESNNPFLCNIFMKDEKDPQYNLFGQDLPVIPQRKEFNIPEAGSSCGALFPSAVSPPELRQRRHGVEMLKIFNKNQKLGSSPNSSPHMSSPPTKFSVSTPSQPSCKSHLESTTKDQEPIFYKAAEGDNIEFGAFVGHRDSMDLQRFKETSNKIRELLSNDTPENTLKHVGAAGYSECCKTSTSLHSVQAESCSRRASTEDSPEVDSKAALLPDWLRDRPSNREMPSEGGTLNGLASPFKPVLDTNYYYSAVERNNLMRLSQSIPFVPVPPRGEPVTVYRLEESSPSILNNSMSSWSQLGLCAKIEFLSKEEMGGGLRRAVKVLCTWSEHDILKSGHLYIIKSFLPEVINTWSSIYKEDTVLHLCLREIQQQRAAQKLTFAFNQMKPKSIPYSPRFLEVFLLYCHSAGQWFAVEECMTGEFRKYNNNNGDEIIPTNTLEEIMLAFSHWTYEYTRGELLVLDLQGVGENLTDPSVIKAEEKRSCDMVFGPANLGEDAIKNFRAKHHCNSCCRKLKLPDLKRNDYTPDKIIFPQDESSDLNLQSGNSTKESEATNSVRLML
Experimental: Human embryonic kidney (HEK) cells were grown in 25 cm^2 flasks at 37° C. in Dulbecco's Modified Eagle's Medium (DMEM) (Beit Haemek biological industries, Israel) supplemented with 10% FBS, 1% pen-strep and 1% L-Glutamine. TRPM7 (GenBank accession number NM—021450; SEQ ID No: 19; provided by David Clapham) and pIRES-eGFP were transiently expressed using TransIT™ reagent (Mirus).
Cells were seeded on polylysine-coated plates at a confluence of 25%, 24-72 hours prior to the experiment. […] Whole-cell, patch-clamp recordings were performed as described (Parnas et al, 2007). Currents were recorded at room temperature using borosilicate patch pipettes of 5-8 MΩ and an Axopatch 1D (Molecular Devices, Inc.) voltage-clamp amplifier. Voltage-clamp pulses were generated and data captured using a Digidata 1322A interfaced to a computer running the pClamp 9.2 software (Axon Instruments, Inc.). Currents were filtered using the 8-pole low pass Bessel filter of the patch-clamp amplifier at 5 kHz and sampled at 20 kHz. To measure I-V curves with minimal distortions, only cells with low (<10 MΩ) series resistance were used, and series resistance was compensated to ˜80%.
For HEK cells, the extracellular solution contained in mM: 140 NaCl, 2.8 KCl, 2 CaCl2, 1 MgCl2, HEPES and 10 glucose. The intracellular solution contained in mM: 140 Cs-Aspartate, 8 NaCl, 10 EGTA and 10 HEPES. All solutions were titrated to pH 7.2. Cells were perfused via a BPS-8 valve control system (Scientific Instruments) at a rate of ˜30 chamber volumes per minute. Chemicals were applied via the perfusion system.

native TRPL channels = biological target: T3, native TRPL channels (Drosophila melanogaster, UniProt P48994); experiment: Light-induced current (LIC) in isolated ommatidia of trp^P343 mutant (native TRPL); format: cell-based; conditions: trp^P343 mutant photoreceptor cells, 500 μM
T3 construct: from tissue; host or cells: dissociated ommatidia of newly emerged white-eyed trpP343 flies
T3 sequence (P48994 1-1124): T1 sequence (P48994 1-1124)
Text: Series resistance was compensated to ˜80%.
All solutions were titrated to pH 7.15. […] All solutions were titrated to pH 7.2. […] Chemicals were applied via the perfusion system.

TRP = biological target: T4, TRP (Drosophila melanogaster, UniProt P19334); experiment: Light-induced current (LIC) in photoreceptor cells of wild-type flies (native TRP)
T4 sequence (P19334 1-1275): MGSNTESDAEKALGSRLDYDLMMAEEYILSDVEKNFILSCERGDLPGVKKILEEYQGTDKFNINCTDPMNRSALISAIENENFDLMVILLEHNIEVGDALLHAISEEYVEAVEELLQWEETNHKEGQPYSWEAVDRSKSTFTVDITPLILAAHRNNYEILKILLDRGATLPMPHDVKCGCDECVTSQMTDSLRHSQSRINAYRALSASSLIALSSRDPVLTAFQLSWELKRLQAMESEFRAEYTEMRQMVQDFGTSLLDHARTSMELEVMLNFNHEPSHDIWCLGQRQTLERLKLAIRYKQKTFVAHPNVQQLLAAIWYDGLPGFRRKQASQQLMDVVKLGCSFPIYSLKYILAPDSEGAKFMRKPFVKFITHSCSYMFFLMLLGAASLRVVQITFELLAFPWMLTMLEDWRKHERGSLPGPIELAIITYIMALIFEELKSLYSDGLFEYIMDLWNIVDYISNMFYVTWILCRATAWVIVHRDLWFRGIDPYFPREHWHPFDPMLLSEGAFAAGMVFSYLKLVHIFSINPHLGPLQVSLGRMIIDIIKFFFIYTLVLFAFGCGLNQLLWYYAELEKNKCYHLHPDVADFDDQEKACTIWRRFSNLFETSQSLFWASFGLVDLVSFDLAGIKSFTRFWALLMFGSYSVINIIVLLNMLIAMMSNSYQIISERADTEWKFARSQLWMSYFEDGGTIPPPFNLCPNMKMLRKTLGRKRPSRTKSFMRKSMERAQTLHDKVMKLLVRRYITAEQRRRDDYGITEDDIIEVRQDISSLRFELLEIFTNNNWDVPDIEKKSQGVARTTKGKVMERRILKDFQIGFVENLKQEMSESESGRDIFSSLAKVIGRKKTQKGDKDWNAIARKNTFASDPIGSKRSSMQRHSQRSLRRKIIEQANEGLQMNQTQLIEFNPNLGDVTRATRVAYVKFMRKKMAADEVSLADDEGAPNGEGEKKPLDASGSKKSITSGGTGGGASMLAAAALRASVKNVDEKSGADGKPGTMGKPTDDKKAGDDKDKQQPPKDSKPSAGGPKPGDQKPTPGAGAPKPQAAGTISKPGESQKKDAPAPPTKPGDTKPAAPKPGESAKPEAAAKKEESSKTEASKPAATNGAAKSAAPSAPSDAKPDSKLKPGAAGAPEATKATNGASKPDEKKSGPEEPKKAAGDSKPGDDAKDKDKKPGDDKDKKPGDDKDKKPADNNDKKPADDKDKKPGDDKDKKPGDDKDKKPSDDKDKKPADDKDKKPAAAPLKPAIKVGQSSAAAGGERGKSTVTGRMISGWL
Experimental: Drosophila white-eyed flies of the following strains were used: wt and trp^P343. Flies were raised at 24° C. in a 12 h light/dark cycle.
A tungsten trans-illumination light (12 V, 100 W halogen lamp, in conjunction with a Schott OG 590 orange edge filter and a KG3 heat filter) provided illumination for stimulation of the photoreceptors in all experiments. Stimulating light was applied via a condenser lens (Carl Zeiss Microlmaging, Inc.) and was attenuated by neutral density filters. The maximal luminous intensity of the unattenuated orange light at the level of the ommatidia was 3.2 mW/cm^2.
Dissociated Drosophila ommatidia were prepared from newly emerged flies (<1 h after eclosion) that were kept in the dark 12-18 h before the experiment. Whole-cell, patch-clamp recordings were performed as described in Peretz et al, 1994. Currents were recorded at 21° C. using borosilicate patch pipettes of 8-10 MO and an Axopatch 200B™ (Molecular Devices, Inc.) voltage-clamp amplifier. Voltage-clamp pulses were generated and data captured using a Digidata 1200™ interfaced to a computer running pClamp 8.0 software (Axon Instruments, Inc.). Currents were filtered using the 8-pole low pass Bessel filter of the patch-clamp amplifier at 5 kHz and sampled at 10 kHz. Series resistance was compensated to ˜80%. […]

TRPM8 = TRPM8 (Homo sapiens, UniProt Q7Z2W7); conditions: literature (Vogt-Eisele 2007); cited from earlier work
Sequence of TRPM8 (Q7Z2W7 whole entry, species assumed): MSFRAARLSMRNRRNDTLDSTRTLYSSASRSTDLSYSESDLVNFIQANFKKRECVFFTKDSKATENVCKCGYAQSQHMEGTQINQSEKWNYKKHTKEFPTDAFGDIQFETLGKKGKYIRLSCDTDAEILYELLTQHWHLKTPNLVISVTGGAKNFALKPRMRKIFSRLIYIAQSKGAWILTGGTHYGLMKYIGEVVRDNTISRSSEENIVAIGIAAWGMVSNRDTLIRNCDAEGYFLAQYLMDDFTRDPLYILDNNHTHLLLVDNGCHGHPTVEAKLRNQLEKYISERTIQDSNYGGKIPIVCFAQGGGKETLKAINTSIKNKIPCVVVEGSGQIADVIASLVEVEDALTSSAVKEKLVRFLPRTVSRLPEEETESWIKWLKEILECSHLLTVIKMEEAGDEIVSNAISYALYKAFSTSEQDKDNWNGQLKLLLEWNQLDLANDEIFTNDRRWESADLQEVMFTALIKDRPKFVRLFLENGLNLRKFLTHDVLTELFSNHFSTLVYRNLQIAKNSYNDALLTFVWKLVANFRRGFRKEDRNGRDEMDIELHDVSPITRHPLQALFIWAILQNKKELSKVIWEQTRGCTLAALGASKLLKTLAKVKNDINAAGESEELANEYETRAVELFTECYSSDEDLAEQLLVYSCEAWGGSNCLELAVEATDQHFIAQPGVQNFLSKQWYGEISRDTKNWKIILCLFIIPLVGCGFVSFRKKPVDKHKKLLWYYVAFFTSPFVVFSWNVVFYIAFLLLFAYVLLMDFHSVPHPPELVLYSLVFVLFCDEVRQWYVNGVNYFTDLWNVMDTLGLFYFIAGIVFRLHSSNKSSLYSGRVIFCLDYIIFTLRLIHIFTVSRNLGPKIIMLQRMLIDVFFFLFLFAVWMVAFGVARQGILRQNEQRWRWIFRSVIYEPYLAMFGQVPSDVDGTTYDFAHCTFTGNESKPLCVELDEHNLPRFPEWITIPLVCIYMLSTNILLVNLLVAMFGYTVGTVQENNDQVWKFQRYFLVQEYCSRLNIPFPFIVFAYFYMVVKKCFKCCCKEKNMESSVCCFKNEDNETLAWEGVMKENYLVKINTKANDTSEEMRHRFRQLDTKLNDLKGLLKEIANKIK

TRPM7 [2] = biological target: T2, TRPM7; experiment: cell-based; conditions: read-out: Inhibition of total presynaptic strength (S)
TRPM7 [3] = biological target: T2, TRPM7; conditions: 500 μM
TRPM7 [4] = conditions: 500 μM
closed head injury = experiment: Mouse model of closed head injury, Neurological Severity Score (NSS); format: in vivo; conditions: subcutaneous 0.751 μg/gr body weight 15 min after injury, up to 27 days
Text: Brain injury is known to disrupt the blood-brain barrier and to induce edema and release auto-destructive factors that produce delayed neuronal damage and neuronal cell death. An experimental model of […] (CHI) in the rat and mouse has been developed and studied mechanistically (Beni-Adani et al 2001; Chen et al 1996). In the present study, CHI was induced under ether anesthesia by allowing a metal rod (333 g) to fall over the exposed skull covering the left hemisphere in the midcornal plane of a 35-45 g Mouse. […] Neurobehavioral evaluations were performed over the next 27 d.
A Neurological Scoring System (NSS) was used to determine ability to perform 10 different behavioral tasks, involving motor ability, balance, and alertness of the mice (Table 4). One point is assigned for failing to perform each task; thus, a normal uninjured mouse scores 0. Injury severity is defined by initial NSS, which is evaluated 1 h post-CHI and referred to as “NSS1.” This value is also a reliable predictor of clinical outcome, with fatal or near-fatal injury corresponding to NSS1 of 7-8; moderate injury to NSS1 of 5-6, and mild injury to NSS1 of <4.

SMILES | Effect on TRPL-mediated current (TRPL channels; S2 cells) | TRPL Activation/Inhibition (TRPL channels) | TRPV3 activation (TRPV3) | Reversibility of effect on TRPL channel (TRPL channels; S2 cells) | Effect on TRPM7-mediated current (TRPM7 [1]) | other results
Cc1ccc(C(C)C)c(O)c1 [Compound XIV, 2-Isopropyl-5-methylphenol] | inhibited TRPL; also recorded: large decrease in the TRPL-dependent current | Inhibition | activate TRPV3 | – | – | –
O=C(O)/C=C/c1ccc(O)c(O)c1 [Compound XV, 3,4-Dihydroxycinnamic acid] | did not block TRPL | No effect | – | – | – | –
C=C(C)[C@@H]1CC=C(C)C(O)C1 (stereo partly drawn) [Compound XVI, (5R)-5-Isopropenyl-2-methyl-2-cyclohexenol] | large decrease in the TRPL-dependent current | Inhibition | – | – | – | IC50 (TRPL channels): 4220 ± 400 µM
O=C/C=C/c1ccccc1 [Compound XII, trans-3-Phenyl-2-propenal] | inhibited TRPL activity; also recorded: decreased the TRPL-mediated current | Inhibition | – | reversible | inhibit TRPM7 | IC50 (TRPL channels; read-out: IC50 of TRPL inhibition, S2 cells, whole-cell patch clamp): 1600 ± 300 µM; TRPA1 activation (TRPA1): activated
C=CCc1ccc(O)c(OC)c1 [Compound XIII, 2-Methoxy-4-(2-propenyl)phenol] | inhibited TRPL; also recorded: large decrease in the TRPL-dependent current | Inhibition | activate TRPV3 | – | – | –
CC12CCC(CC1=O)C2(C)C (centres unmarked) [Compound XI, 1,7,7-Trimethylbicyclo[2.2.1]heptan-2-one] | activated the TRPL channel | Activation | believed to activate TRPV3 | – | – | –
CC1(C)C2CCC1(C)C(O)C2 [Compound XVII, endo-(1R)-1,7,7-Trimethylbicyclo[2.2.1]heptan-2-ol] | activated the TRPL channel; also recorded: activated the TRPL-mediated current | Activation | believed to activate TRPV3 | completely reversible rapid activation | inhibit TRPM7 | Effect on current when TRPL channels were not expressed (control) (TRPL channels): no effect
CC(C)[C@@H]1CC[C@@H](C)C[C@H]1O [Compound X, 2-Isopropyl-5-methylcyclohexanol] | large decrease in the TRPL-dependent current | Inhibition | – | – | inhibit TRPM7 | IC50 (TRPL channels): 1810 ± 130 µM
Cc1ccc(C(C)C)cc1O [Compound IX, 5-Isopropyl-2-methylphenol] | Large suppression of the current; also recorded: large decrease in the TRPL-dependent current | Inhibition | believed to activate TRPV3 | reversibly blocked | Large and dose-dependent suppression of the current; also recorded: dramatic decrease in the TRPM7 mediated current | Effect on light-induced current (LIC) amplitude, native TRPL (native TRPL channels): dramatically reduced LIC amplitude; also recorded: inhibits the native TRPL channels; Effect on current when TRPL channels were not expressed (control) (TRPL channels): no effect; Effect on light-induced current (LIC) of WT flies, native TRP (TRP): inhibited LIC of WT flies; Effect on TRPM8 (TRPM8): only a minimal effect on TRPM8; inhibition at 500 µM (TRPM7 [2]): 47 ± 3%; Effect on vesicle release in TRPM7-GFP-expressing neurons (TRPM7 [3]; 30 APs@1 Hz): significantly decreased vesicle release; ΔF median of boutons after compound application (TRPM7 [3]; TRPM7-GFP-expressing neurons, 73 before): 75 arbitrary units; Number of FM-detectable boutons after compound application (TRPM7 [3]; TRPM7-GFP-expressing neurons, 578 before): 318; ΔF median of boutons after compound application (TRPM7 [4]; control neurons, 88 before): 87 arbitrary units; Number of FM-detectable boutons after compound application (TRPM7 [4]; control neurons, 764 before): 845; Effect on presynaptic activity in control neurons (TRPM7 [4]; neurons lacking TRPM7-GFP): did not affect presynaptic activity; Effect on vesicle release in control neurons (TRPM7 [4]; neurons lacking TRPM7-GFP): did not alter vesicle release; Reversibility of TRPM7 block (TRPM7 [1]; HEK cells): reversibly blocked activity; Effect in mock-transfected HEK293 cells (TRPM7 not expressed) (TRPM7 [1]; control): no effect was observed; NSS recovery after closed head injury vs saline (closed head injury): NSS scores dropped significantly more; also recorded: significant protective effect from brain damage
